Measured values from patent publication US10357473B2, “Method for treating a prolifitive disorder with a cis-diamine platinum complex” (KING FAHD UNIVERSITY OF PETROLEUM AND MINERALS, priority 2017, dated 2019).

Legend:
Assay type in all cases: cell-based
[1] = system: HCT15 (human colon adenocarcinoma) cell line; test: In vitro cytotoxic activity (MTT assay) against HCT15 cells; conditions: for cytotoxicity against HCT15 compared in words with cisplatin / carboplatin: HCT15 cells, comparison of IC50 values; for IC50: MTT assay, cultures incubated 24 h with compound, ± standard deviation, three independent experiments
Procedure: (§1) The cis-[Pt(NH3)2(thione)2].2NO3 complexes were evaluated for their in vitro cytotoxic activity against A549 (human lung cancer), MCF-7 (human breast cancer) and HTC15 (human colon cancer) cell lines. The cells were seeded at 4×10^3 cells/well in 100 μL DMEM containing 10% FBS in 96-wells tissue culture plate and incubated for 72 h at 37° C., 5% CO2 in the air and 90% relative humidity in the CO2 incubator. […] The medium of wells was discarded and 100 μL DMEM containing MTT (3-(4,5-Dimethylthiazol-2-yl)-2,5-diphenyltetrazolium Bromide) (5 mg/mL) was added to the wells and incubated in a CO2 incubator at 37° C. in dark for 4 h. After incubation, purple colored formazan (artificial chromogenic dye, a product of the reduction of water insoluble tetrazolium salts e.g., MMT by dehydrogenases and reductases) in the cells is produced and appeared as dark crystals in the bottom of the wells. The resultant crystals were solubilized by adding 100 μL of DMSO in each well. The solution was thoroughly mixed to dissolve the formazan crystals, producing a purple solution. The absorbance of the 96-wells plate was taken at 570 nm with Labsystems Multiskan EX-Enzyme-linked immunosorbent assay (EX-ELISA) reader against a reagent blank. The IC50 values were calculated from three independent experiments by generating an equation of logarithmic trendline of percentage cell viability against concentration compounds in Microsoft excel.
(§2) The IC50 values were obtained from curves between the complexes concentration and viability percentage of the cells, and are listed, in Table 3.
(§3) The experimental results are presented as the micro-mole concentration of 50%/0 cell growth inhibition (IC50) of each drug. The MTT assay was performed in three independent experiments, each in triplicate. The cancer cell lines used are A549 (human lung cancer), MCF-7 (human breast cancer) and HTC15 (human colon cancer) cell lines.

[2] = system: A549 (human lung carcinoma) cell line; test: In vitro cytotoxic activity (MTT assay) against A549 cells; conditions: for IC50: MTT assay, cultures incubated 24 h with compound, ± standard deviation, three independent experiments; for in vitro cytotoxicity against A549 compared in words with cisplatin / carboplatin: A549 cells, comparison of IC50 values
Procedure: as §1
The MTT assay was performed in three independent experiments, each in triplicate. The cancer cell lines used are A549 (human lung cancer), MCF-7 (human breast cancer) and HTC15 (human colon cancer) cell lines.

[3] = system: MCF7 (human breast carcinoma) cell line; test: In vitro cytotoxic activity (MTT assay) against MCF7 cells; conditions: for antiproliferative potency against MCF7 in words, compared with cisplatin / carboplatin: MCF7 cells, comparison of IC50 values; for IC50: MTT assay, cultures incubated 24 h with compound, ± standard deviation, three independent experiments
Procedure: as §1, §2, §3

Row | SMILES | cytotoxicity against HCT15 compared in words with cisplatin / carboplatin [1] | IC50 [1] [µM] | IC50 [2] [µM] | antiproliferative potency against MCF7 in words, compared with cisplatin / carboplatin [3] | IC50 [3] [µM] | in vitro cytotoxicity against A549 compared in words with cisplatin / carboplatin [2]
1 | CN1CCN(C)C1=[S+][Pt-2]([NH3+])([NH3+])[S+]=C1N(C)CCN1C.O=[N+]([O-])[O-].O=[N+]([O-])[O-] [Compound 3, cis-[Pt(NH3)2(Me2Imt)2].2NO3] | nearly same value as carboplatin | 54 ± 1 | 68 ± 1 | greater cytotoxic effect than carboplatin | 58 | 
2 | CC(C)N1CCNC1=[S+][Pt-2]([NH3+])([NH3+])[S+]=C1NCCN1C(C)C.O=[N+]([O-])[O-].O=[N+]([O-])[O-] [Compound 6, cis-[Pt(NH3)2(iPrImt)2].2NO3] | lower IC50 values | 48 ± 1 | 55 |  | 81 ± 3 | comparable to cisplatin
3 | O=[N+]([O-])[O-].O=[N+]([O-])[O-].[NH3+][Pt-2]([NH3+])([S+]=C1NCCCN1)[S+]=C1NCCCN1 [Compound 8, cis-[Pt(NH3)2(Diaz)2].2NO3] |  | 76 ± 1 | 75 ± 2 |  | 90 ± 2 | nearly same as that of carboplatin
4 | CN1CCNC1=[S+][Pt-2]([NH3+])([NH3+])[S+]=C1NCCN1C.O=[N+]([O-])[O-].O=[N+]([O-])[O-] [Compound 2, cis-[Pt(NH3)2(MeImt)2].2NO3] |  | 75 ± 2 | 85 ± 1 |  | 82 ± 1 | 
5 | CCN1CCN(CC)C1=[S+][Pt-2]([NH3+])([NH3+])[S+]=C1N(CC)CCN1CC.O=[N+]([O-])[O-].O=[N+]([O-])[O-] [Compound 4, cis-[Pt(NH3)2(Et2Imt)2].2NO3] |  | 97 ± 3 | 108 ± 2 |  | 97 ± 3 | 
6 | N.N.O=C([O-])C1(C(=O)[O-])CCC1.[Pt+2] [Carboplatin, reference compound] |  | 53 ± 2 | 70 ± 2 | poor antiproliferative potency | 63 ± 2 | 
7 | O=[N+]([O-])[O-].O=[N+]([O-])[O-].[NH3+][Pt-2]([NH3+])([S+]=C1NCCN1)[S+]=C1NCCN1 [Compound 1, cis-[Pt(NH3)2(Imt)2].2NO3] |  | 82 ± 1 | 53 |  | 101 ± 2 | comparable to cisplatin
8 | CCCN1CCNC1=[S+][Pt-2]([NH3+])([NH3+])[S+]=C1NCCN1CCC.O=[N+]([O-])[O-].O=[N+]([O-])[O-] [Compound 5, cis-[Pt(NH3)2(PrImt)2].2NO3] | lower IC50 values | 51 ± 2 | 72 ± 2 |  | 74 ± 2 | nearly same as that of carboplatin
9 | CCN1CCCNC1=[S+][Pt-2]([NH3+])([NH3+])[S+]=C1NCCCN1CC.O=[N+]([O-])[O-].O=[N+]([O-])[O-] [Compound 9, cis-[Pt(NH3)2(EtDiaz)2].2NO3] |  | 90 ± 2 | 73 ± 1 |  | 103 ± 3 | nearly same as that of carboplatin
10 | O=[N+]([O-])[O-].O=[N+]([O-])[O-].[NH3+][Pt-2]([NH3+])([S+]=C1NCCCCN1)[S+]=C1NCCCCN1 [Compound 10, cis-[Pt(NH3)2(Diap)2].2NO3] | lower IC50 values | 41 ± 1 | 52 |  | 71 ± 1 | comparable to cisplatin
11 | N.N.[Cl][Pt][Cl] [Cisplatin, cis-diaminedichloridoplatinum(II), reference compound] |  | 32 ± 2 | 42 ± 2 |  | 23 ± 3 | 
12 | CC(C)N1CCN(C(C)C)C1=[S+][Pt-2]([NH3+])([NH3+])[S+]=C1N(C(C)C)CCN1C(C)C.O=[N+]([O-])[O-].O=[N+]([O-])[O-] [Compound 7, cis-[Pt(NH3)2(iPr2Imt)2].2NO3] | lower IC50 values | 52 ± 1 | 50 |  | 78 ± 2 | comparable to cisplatin
